# Target: T1, chimeric human H3 receptor (Homo sapiens, UniProt Q9Y5N1)
# T1 construct: rat Galpha-i2 (Gnai2, rat); made in house; host or cells: Sf9 insect cells (baculovirus); P2 membranes
# Test: Chimeric human H3 receptor GTP binding assay (agonist-stimulated GTP-gamma35S binding, Example 7)
# Type: biochemical
# Details: assay of Example 7; symbol "*" in column headed Ki; read-out: Ki
# From the text: This Example illustrates a representative assay for evaluating agonist-stimulated GTP-gamma^35S binding (“GTP binding”) activity. […] This agonist-stimulated GTP binding activity can also be used to detect partial agonism mediated by antagonist compounds. A compound analyzed in this assay is referred to herein as a “test compound.”
# Four independent baculoviral stocks (one directing the expression of the chimeric human H3 receptor and three directing the expression of each of the three subunits of a heterotrimeric G-protein) are used to infect a culture of Sƒ9 cells as described above. P2 membranes are prepared as described above, and agonist-stimulated GTP binding on the P2 membranes is assessed using histamine (Sigma Chemical Co., St. Louis, Mo.) as agonist in order to ascertain that the receptor/G-protein-alpha-beta-gamma combination(s) yield a functional response as measured by GTP binding. P2 membranes are resuspended by Dounce homogenization (tight pestle) in GTP binding assay buffer (50 mM Tris pH 7.4, 120 mM NaCl, 5 mM MgCl2, 2 mM EGTA, 1 mg/ml BSA, 0.2 mg/ml bacitracin, 0.02 mg/ml aprotinin, 0.01 mg/ml saponin, 10 μM GDP) and added to assay tubes at a concentration of 35 μg protein/reaction tube. After adding increasing doses of histamine at concentrations ranging from 10-12 M to 10^−5 M, reactions are initiated by the addition of 125 pM GTP-gamma^35S (PERKIN ELMER; Boston, Mass.) with a final assay volume of 0.20 ml. In competition experiments, non-radiolabeled test compounds are added to separate reactions at concentrations ranging from 10^−10 M to 10^−6 M along with 1 μM histamine to yield a final volume of 0.20 ml.
# Neutral antagonists are antagonists that are substantially free of inherent agonist activity, and include those test compounds that reduce the histamine-stimulated GTP binding activity towards, but not below, baseline levels. In contrast, in the absence of added histamine, inverse agonists reduce the GTP binding activity of the receptor-containing membranes below baseline.
# After a 60-min incubation at room temperature, reactions are terminated by vacuum filtration over WHATMAN GF/C filters (pre-soaked in wash buffer, 0.1% BSA) followed by washing with ice-cold wash buffer (50 mM Tris pH 7.4, 120 mM NaCl). The amount of receptor-bound (and thereby membrane-bound) GTP-gamma^35S is determined by measuring the filter-bound radioactivity, preferably by liquid scintillation spectrometry of the washed filters. Non-specific binding is determined in parallel assays including 10 μM unlabeled GTP-gammaS and typically represents less than 5 percent of total binding. Data is expressed as percent above basal (baseline). The results of GTP binding experiments are analyzed using SIGMAPLOT software (SPSS Inc., Chicago, Ill.). IC50 values are calculated by non-linear regression analysis of dose-response curves using Kaleidograph (Synergy Software, Reading, Pa.).
# Alternatively the data is analyzed as follows. First, the average bound radioactivity from negative control wells (no agonist) is subtracted from the bound radioactivity detected for each of the other experimental wells. Second, average bound radioactivity is calculated for the positive control wells (agonist wells). Then, percent inhibition for each compound tested is calculated using the equation: [formula]
# Calculated IC50 values are converted to Ki values by the Cheng-Prusoff correction (Cheng and Prusoff (1973) Biochem. Pharmacol. 22(23):3099-3108). Accordingly, the following equation: Ki=IC50/(1+[L]/EC50) is used, where [L] is the histamine concentration in the GTP binding assay, and EC50 is the concentration of histamine producing a 50% response, as determined by a dose-response analysis using concentrations of histamine ranging from 10^−10 M to 10^−6 M. […]
# T1 sequence (Q9Y5N1 with tags, fused parts or gaps): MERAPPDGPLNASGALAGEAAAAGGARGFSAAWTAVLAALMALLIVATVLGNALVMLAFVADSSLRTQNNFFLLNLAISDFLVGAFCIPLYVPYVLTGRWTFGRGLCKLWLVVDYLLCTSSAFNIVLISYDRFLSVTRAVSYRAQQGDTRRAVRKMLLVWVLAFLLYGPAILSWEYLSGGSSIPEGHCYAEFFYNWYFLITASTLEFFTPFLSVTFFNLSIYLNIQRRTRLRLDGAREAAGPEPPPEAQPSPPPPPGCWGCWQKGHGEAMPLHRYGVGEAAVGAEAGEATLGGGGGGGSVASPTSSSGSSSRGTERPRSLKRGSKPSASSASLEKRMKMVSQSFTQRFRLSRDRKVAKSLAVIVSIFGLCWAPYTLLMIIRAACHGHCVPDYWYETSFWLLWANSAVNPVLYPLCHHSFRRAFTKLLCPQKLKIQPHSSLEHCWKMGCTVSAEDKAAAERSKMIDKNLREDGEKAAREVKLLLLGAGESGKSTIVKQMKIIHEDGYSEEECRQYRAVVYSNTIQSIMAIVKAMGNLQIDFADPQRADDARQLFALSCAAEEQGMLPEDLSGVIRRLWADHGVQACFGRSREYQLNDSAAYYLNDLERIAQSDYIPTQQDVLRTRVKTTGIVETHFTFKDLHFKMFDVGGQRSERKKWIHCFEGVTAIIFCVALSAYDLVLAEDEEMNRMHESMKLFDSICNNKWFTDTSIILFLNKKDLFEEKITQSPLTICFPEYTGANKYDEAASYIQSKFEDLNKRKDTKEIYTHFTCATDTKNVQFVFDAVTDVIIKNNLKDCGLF
row,Ki [nM],SMILES
1,< 1000,"CCN1CCN(c2ncc3c(n2)CCN(C2CCC2)CC3)CC1 [Compound 599, 7-cyclobutyl-2-(4-ethylpiperazin-1-yl)-6,7,8,9-tetrahydro-5H-pyrimido[4,5-d]azepine]"
2,< 1000,"CC(=O)N1CCN(c2ncc3c(n2)CCN(C2CCC2)CC3)CC1 [Compound 600, 2-(4-acetylpiperazin-1-yl)-7-cyclobutyl-6,7,8,9-tetrahydro-5H-pyrimido[4,5-d]azepine]"
3,< 1000,"CC1CCC[C@@H]2CN(c3ncc4c(n3)CCN(CC3CCOCC3)CC4)CCN12 (stereo partly shown) [Compound 597, 2-(6-methyloctahydro-2H-pyrido[1,2-a]pyrazin-2-yl)-7-(tetrahydro-2H-pyran-4-ylmethyl)-6,7,8,9-tetrahydro-5H-pyrimido[4,5-d]azepine]"
4,< 1000,"CNC(=O)c1ccc(N2CCN(c3ncc4c(n3)CCN(CC3CCOCC3)CC4)CC2)nc1 [Compound 603, N-methyl-6-{4-[7-(tetrahydro-2H-pyran-4-ylmethyl)-6,7,8,9-tetrahydro-5H-pyrimido[4,5-d]azepin-2-yl]piperazin-1-yl}nicotinamide]"
